SMILES strings stand for the structures.

The target of this assay is T1, F508del (Homo sapiens, UniProt P13569, DEL508-508).
T1 construct: expressed in transfected cells
T1 sequence (P13569 with tags, fused parts or gaps DEL508-508): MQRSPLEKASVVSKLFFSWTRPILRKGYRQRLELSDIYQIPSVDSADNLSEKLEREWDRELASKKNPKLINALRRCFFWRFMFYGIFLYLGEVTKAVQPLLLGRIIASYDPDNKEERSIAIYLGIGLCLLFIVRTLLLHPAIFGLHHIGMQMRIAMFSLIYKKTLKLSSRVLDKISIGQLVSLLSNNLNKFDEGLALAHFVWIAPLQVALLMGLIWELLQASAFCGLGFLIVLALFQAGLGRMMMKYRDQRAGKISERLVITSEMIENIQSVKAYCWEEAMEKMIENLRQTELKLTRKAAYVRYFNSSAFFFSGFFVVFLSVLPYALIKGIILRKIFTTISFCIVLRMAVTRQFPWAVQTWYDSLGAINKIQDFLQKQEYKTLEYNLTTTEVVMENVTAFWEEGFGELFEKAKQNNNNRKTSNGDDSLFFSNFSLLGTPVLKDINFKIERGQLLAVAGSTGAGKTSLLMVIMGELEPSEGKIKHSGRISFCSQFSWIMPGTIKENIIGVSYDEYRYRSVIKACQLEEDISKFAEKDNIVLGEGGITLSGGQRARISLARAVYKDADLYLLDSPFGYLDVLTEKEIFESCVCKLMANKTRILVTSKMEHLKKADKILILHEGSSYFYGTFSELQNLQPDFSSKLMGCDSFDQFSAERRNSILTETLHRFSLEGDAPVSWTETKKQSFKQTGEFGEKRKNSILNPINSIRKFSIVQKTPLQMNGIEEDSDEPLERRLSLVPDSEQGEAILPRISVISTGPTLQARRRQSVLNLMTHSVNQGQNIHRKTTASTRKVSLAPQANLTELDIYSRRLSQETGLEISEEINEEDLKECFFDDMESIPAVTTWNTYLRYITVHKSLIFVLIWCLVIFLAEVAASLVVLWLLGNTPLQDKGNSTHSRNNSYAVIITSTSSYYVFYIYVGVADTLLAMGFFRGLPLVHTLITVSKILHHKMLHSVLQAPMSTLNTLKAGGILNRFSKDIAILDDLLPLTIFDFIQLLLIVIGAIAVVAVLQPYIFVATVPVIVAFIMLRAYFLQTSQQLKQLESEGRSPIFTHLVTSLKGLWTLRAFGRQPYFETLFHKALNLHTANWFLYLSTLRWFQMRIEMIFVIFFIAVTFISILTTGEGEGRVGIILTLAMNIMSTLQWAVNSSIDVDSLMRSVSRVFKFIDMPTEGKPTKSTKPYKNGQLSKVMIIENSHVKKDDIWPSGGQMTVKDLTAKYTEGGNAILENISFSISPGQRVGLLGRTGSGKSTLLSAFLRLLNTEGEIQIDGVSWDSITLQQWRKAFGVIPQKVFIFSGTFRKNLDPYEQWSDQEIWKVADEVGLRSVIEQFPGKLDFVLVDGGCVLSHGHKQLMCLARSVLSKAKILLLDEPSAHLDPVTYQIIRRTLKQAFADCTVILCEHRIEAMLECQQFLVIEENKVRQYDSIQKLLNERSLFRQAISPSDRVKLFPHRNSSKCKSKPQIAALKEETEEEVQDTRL
Briefly: Protocol 1: membrane potential optical assay (FLIPR III, voltage sensing dye), identification of potentiator compounds. Format: cell-based. As to conditions: Table 3, compounds of Table 1. A digest of the protocol:
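Mouse NIH 3T3 fibroblasts stably expressing F508del, temperature-corrected at 27 °C for 24 h, pretreated with compound, then loaded with voltage-sensing redistribution dye. Forskolin was added in a single step with a chloride gradient (chloride-free gluconate bath; Bath Solution #1 HEPES pH 7.4). Membrane-potential fluorescence read on FLIPR III.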
Consider `Cc1cc(C)c(Oc2nc(C3=CCN(C(=O)OC(C)C)CC3)ccc2C(=O)NS(=O)(=O)c2cccc(N)n2)c(C)c1` [Compound 1366, isopropyl 4-[5-[(6-amino-2-pyridyl)sulfonylcarbamoyl]-6-(2,4,6-trimethylphenoxy)-2-pyridyl]-3,6-dihydro-2H-pyridine-1-carboxylate], for which the EC30 result was “+++ (“+++” means <3 uM)”.

For the compound `Cc1cc(C)c(Oc2nc(-c3ccccn3)ccc2C(=O)NS(=O)(=O)c2cc[nH]n2)c(C)c1` [Compound 1353, N-(1H-pyrazol-3-ylsulfonyl)-6-(2-pyridyl)-2-(2,4,6-trimethylphenoxy)pyridine-3-carboxamide], the EC30 entry is “+ (“+” means greater than 10 uM)”.

Turning to `CC(=O)N1CCC(c2ccc(C(=O)NS(=O)(=O)c3cccc(N)n3)c(N3C[C@@H](C)CC3(C)C)n2)CC1` [Compound 1634, 6-(1-acetyl-4-piperidyl)-N-[(6-amino-2-pyridyl)sulfonyl]-2-[(4S)-2,2,4-trimethylpyrrolidin-1-yl]pyridine-3-carboxamide], the EC30 entry is “++ (“++” means between 3 uM and 10 uM)”. The entry for `COc1ncc(-c2ccc(C(=O)NS(=O)(=O)c3nccnc3N)c(N3CCC(C)CC3)n2)cc1C` [Compound 1191, N-(3-aminopyrazin-2-yl)sulfonyl-6-(6-methoxy-5-methyl-3-pyridyl)-2-(4-methyl-1-piperidyl)pyridine-3-carboxamide] is “++ (“++” means between 3 uM and 10 uM)”; for `CC(C)COc1cc(F)cc(-c2ccc(C(=O)NS(=O)(=O)c3cccc(N)n3)c(N3CC4CC(C4)C3)n2)c1` [Compound 1529, N-[(6-amino-2-pyridyl)sulfonyl]-2-(3-azabicyclo[3.1.1]heptan-3-yl)-6-(3-fluoro-5-isobutoxy-phenyl)pyridine-3-carboxamide] it is “+++ (“+++” means <3 uM)”; for `CC(C)Cc1ccnn1-c1ccc(C(=O)NS(=O)(=O)c2cccc(N)n2)c(N2C[C@@H](C)CC2(C)C)n1` [Compound 1431, N-[(6-amino-2-pyridyl)sulfonyl]-6-(5-isobutylpyrazol-1-yl)-2-[(4S)-2,2,4-trimethylpyrrolidin-1-yl]pyridine-3-carboxamide] it is “+++ (“+++” means <3 uM)”. The entry for `CCOc1cccc2c1CN(Cc1c(C)cc(C)cc1C)C2(C)C(=O)NS(=O)(=O)c1cccc(NC(C)=O)n1` (stereo not drawn) [Compound 1415, N-[(6-acetamido-2-pyridyl)sulfonyl]-4-ethoxy-1-methyl-2-[(2,4,6-trimethylphenyl)methyl]isoindoline-1-carboxamide] is “+++ (“+++” means <3 uM)”; for `CCC(CC)Nc1ccc(-c2ccc(C(=O)NS(=O)(=O)c3cccc(N)n3)c(N3[C@H](C)CC[C@@H]3C)n2)cn1` [Compound 1397, N-[(6-amino-2-pyridyl)sulfonyl]-2-[(2R,5S)-2,5-dimethylpyrrolidin-1-yl]-6-[6-(1-ethylpropylamino)-3-pyridyl]pyridine-3-carboxamide] it is “+++ (“+++” means <3 uM)”; for `COc1ccccc1-c1ccc(C(=O)NS(=O)(=O)c2cccnc2N)c(N2C[C@@H](C)CC2(C)C)n1` [Compound 1962, N-[(2-amino-3-pyridyl)sulfonyl]-6-(2-methoxyphenyl)-2-[(4S)-2,2,4-trimethylpyrrolidin-1-yl]pyridine-3-carboxamide] it is “+++ (“+++” means <3 uM)”. The entry for `CC(C)Oc1ccc(-c2ccc(C(=O)NS(=O)(=O)c3cccc(N)n3)c(N3CCC[C@@H](c4ccccc4)C3)n2)cn1` [Compound 864, N-[(6-amino-2-pyridyl)sulfonyl]-6-(6-isopropoxy-3-pyridyl)-2-[(3S)-3-phenyl-1-piperidyl]pyridine-3-carboxamide] is “+++ (“+++” means <3 uM)”; for `CCOc1cccc2c1CN(Cc1c(C)cc(C)cc1C)C2(C)C(=O)NS(=O)(=O)c1cccnc1` (stereo not drawn) [Compound 1669, 4-ethoxy-1-methyl-N-(3-pyridylsulfonyl)-2-[(2,4,6-trimethylphenyl)methyl]isoindoline-1-carboxamide] it is “+++ (“+++” means <3 uM)”.

Turning to `Cc1cc(F)cc(-c2ccc(C(=O)NS(=O)(=O)N3CC[C@H](N)C3)c(N3C[C@@H](C)CC3(C)C)n2)c1` [Compound 1819, N-[(3S)-3-aminopyrrolidin-1-yl]sulfonyl-6-(3-fluoro-5-methyl-phenyl)-2-[(4S)-2,2,4-trimethylpyrrolidin-1-yl]pyridine-3-carboxamide], the EC30 result was “++ (“++” means between 3 uM and 10 uM)”. For `CC(C)Oc1ccc(-c2ccc(C(=O)NS(=O)(=O)c3cccc(N)n3)c(N3CCCC3Cc3ccccc3)n2)cn1` (stereo not drawn) [Compound 994, N-[(6-amino-2-pyridyl)sulfonyl]-2-(2-benzylpyrrolidin-1-yl)-6-(6-isopropoxy-3-pyridyl)pyridine-3-carboxamide], the EC30 result is on record as “+++ (“+++” means <3 uM)”. Consider `CC(C)COc1cc(F)cc(-c2ccc(C(=O)NS(=O)(=O)c3cccc(N)n3)c(OC3CCCC3(C)C)n2)c1` (stereo not drawn) [Compound 1629, N-[(6-amino-2-pyridyl)sulfonyl]-2-(2,2-dimethylcyclopentoxy)-6-(3-fluoro-5-isobutoxy-phenyl)pyridine-3-carboxamide], for which the EC30 entry is given as “+++ (“+++” means <3 uM)”. The entry for `CCOc1cccc(-c2ccc(C(=O)NS(=O)(=O)c3ccc[nH]c3=O)c(N3C[C@@H](C)CC3(C)C)n2)c1F` [Compound 1802, 6-(3-ethoxy-2-fluoro-phenyl)-N-[(2-oxo-1H-pyridin-3-yl)sulfonyl]-2-[(4S)-2,2,4-trimethylpyrrolidin-1-yl]pyridine-3-carboxamide] is “+++ (“+++” means <3 uM)”. The entry for `Cc1cc(C)c(Oc2nc(-c3ccccc3C)ccc2C(=O)NS(=O)(=O)c2cccc(N)n2)c(C)c1` [Compound 1120, N-[(6-amino-2-pyridyl)sulfonyl]-6-(o-tolyl)-2-(2,4,6-trimethylphenoxy)pyridine-3-carboxamide] is “+++ (“+++” means <3 uM)”. The entry for `Cc1ccc(Oc2nc(-c3cc(F)cc(OC(C)C)c3)ccc2C(=O)NS(=O)(=O)c2cc[nH]n2)c(C)c1` [Compound 1213, 2-(2,4-dimethylphenoxy)-6-(3-fluoro-5-isopropoxy-phenyl)-N-(1H-pyrazol-3-ylsulfonyl)pyridine-3-carboxamide] is “++ (“++” means between 3 uM and 10 uM)”; for `CC(C)(C)c1ccc(C(=O)NS(=O)(=O)c2cccc(N)n2)c(N2CCC(Cc3ccccc3)C2(C)C)n1` (stereo not drawn) [Compound 1852, N-[(6-amino-2-pyridyl)sulfonyl]-2-(3-benzyl-2,2-dimethyl-pyrrolidin-1-yl)-6-tert-butyl-pyridine-3-carboxamide] it is “+++ (“+++” means <3 uM)”. Take `CC1CN(c2ncccc2C(=O)NS(=O)(=O)c2cccc(N3CCN(c4ccccn4)CC3)n2)C(C)(C)C1` (stereo not drawn) [Compound 1816, N—[[6-[4-(2-pyridyl)piperazin-1-yl]-2-pyridyl]sulfonyl]-2-(2,2,4-trimethylpyrrolidin-1-yl)pyridine-3-carboxamide]: the EC30 entry is “+++ (“+++” means <3 uM)”.

`Cc1cc(-c2ccc(C(=O)NS(=O)(=O)c3cccnc3N)c(N3C[C@@H](C)CC3(C)C)n2)cnc1OCCOC(C)C` [Compound 1695, N-[(2-amino-3-pyridyl)sulfonyl]-6-[6-(2-isopropoxyethoxy)-5-methyl-3-pyridyl]-2-[(4S)-2,2,4-trimethylpyrrolidin-1-yl]pyridine-3-carboxamide]: the EC30 entry is given as “+++ (“+++” means <3 uM)”. As to `CC(C)COc1cc(F)cc(-c2ccc(C(=O)NS(=O)(=O)c3cccc(N)n3)c(OC3CCC3)n2)c1` [Compound 1580, N-[(6-amino-2-pyridyl)sulfonyl]-2-(cyclobutoxy)-6-(3-fluoro-5-isobutoxy-phenyl)pyridine-3-carboxamide], the EC30 result is “+++ (“+++” means <3 uM)”. The entry for `C[C@@H]1CN(c2nc(-c3cc(F)c(F)cc3F)ccc2C(=O)NS(=O)(=O)c2ccc[nH]c2=O)C(C)(C)C1` [Compound 1981, N-[(2-oxo-1H-pyridin-3-yl)sulfonyl]-6-(2,4,5-trifluorophenyl)-2-[(4S)-2,2,4-trimethylpyrrolidin-1-yl]pyridine-3-carboxamide] is “+++ (“+++” means <3 uM)”; for `CC1CN(c2ncccc2C(=O)NS(=O)(=O)c2cccc(NC(C)c3ccccc3)n2)C(C)(C)C1` (stereo not drawn) [Compound 1905, N—[[6-(1-phenylethylamino)-2-pyridyl]sulfonyl]-2-(2,2,4-trimethylpyrrolidin-1-yl)pyridine-3-carboxamide] it is “+++ (“+++” means <3 uM)”; for `CC(C)[C@H](C)Nc1ccc(-c2ccc(C(=O)NS(=O)(=O)c3cccc(N)n3)c(N3[C@H](C)CC[C@@H]3C)n2)cn1` [Compound 1399, N-[(6-amino-2-pyridyl)sulfonyl]-6-[6-[[(1 S)-1,2-dimethylpropyl]amino]-3-pyridyl]-2-[(2S,5R)-2,5-dimethylpyrrolidin-1-yl]pyridine-3-carboxamide] it is “+++ (“+++” means <3 uM)”. Regarding `CC(C)COc1cc(F)cc(-c2ccc(C(=O)NS(=O)(=O)c3ccn[nH]3)c(N3CCC(C)CC3)n2)c1` [Compound 1083, 6-(3-fluoro-5-isobutoxy-phenyl)-2-(4-methyl-1-piperidyl)-N-(1H-pyrazol-5-ylsulfonyl)pyridine-3-carboxamide], the EC30 entry was “+++ (“+++” means <3 uM)”. For the compound `CCC(CC)Oc1ccc(-c2ccc(C(=O)NS(=O)(=O)c3cccc(N)n3)c(N3CC(C)CC3(C)C)n2)cn1` (stereo not drawn) [Compound 1076, N-[(6-amino-2-pyridyl)sulfonyl]-6-[6-(1-ethylpropoxy)-3-pyridyl]-2-(2,2,4-trimethylpyrrolidin-1-yl)pyridine-3-carboxamide], the EC30 entry is reported as “+++ (“+++” means <3 uM)”. For `Cc1cc(C)c(Oc2ncc(-c3ccccc3C(C)C)cc2C(=O)NS(=O)(=O)c2cccc(N)n2)c(C)c1` [Compound 865, N-[(6-amino-2-pyridyl)sulfonyl]-5-(2-isopropylphenyl)-2-(2,4,6-trimethylphenoxy)pyridine-3-carboxamide], the EC30 entry is “+++ (“+++” means <3 uM)”.

The record behind these values is patent US10758534B2 (Vertex Pharmaceuticals Incorporated, priority 2014, dated 2020).
